Experimental findings from ChEMBL document CHEMBL1144467, “Effect of topical microbicides on infectious human immunodeficiency virus type 1 binding to epithelial cells” (2007) are described below.

Active and inactive are the calls of the source. The rule behind the calls is not given here.

Assay [1] relates to Human immunodeficiency virus 1. The assay can be described thus: Inhibition of HIV1 BaL binding to human A431 cells relative to control. In kind it is functional, organism-based. The following applies: A-431.
Assay [2] has as its system Human immunodeficiency virus 1. The assay can be described thus: Antiviral activity against HIV1 BaL assessed as logReduction in viral transmission from human A431 cells to human PBMC by ELISA. Format: functional.
The subject of assay [3] is Human immunodeficiency virus 1. Kind of assay: Inhibition of HIV1 BaL binding to human Caco-2 cells relative to control. Format: functional, organism-based.
Assay [4] relates to Human immunodeficiency virus 1. Kind of assay: Inhibition of HIV1 LAI binding to human A431 cells relative to control. Format: functional, organism-based. The following applies: A-431.
The subject of assay [5] is Human immunodeficiency virus 1. The assay can be described thus: Inhibition of HIV1 LAI binding to human Caco-2 cells relative to control. In kind it is functional, organism-based.

Take `CC(C)=CCOc1cc(NC(=S)c2ccoc2C)ccc1Cl` [UC 781]: the outcome in assay [1], in assay [3], in assay [4] and in assay [5] was inactive. The Activity in assay [2] was 6.1.
